4 compounds from ChEMBL document CHEMBL1201862, “PubChem BioAssay data set” (2004) can be followed below.

The structures appear in SMILES notation. Where a name gives a salt, the structure may show the parent alone.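 Values below derive from 48-hour exposures of cells grown in 96-well plates, with endpoints linearly interpolated between the two concentrations bracketing the appropriate inhibition level. At the GI50, growth is halved.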 Calls of active or inactive are those of the source. No stated cut-off is given here; in the data, active = GI50 up to about 1.1 µM and inactive = higher.

Among the test systems are A498; ACHN; DU-145; HCT-15; HL-60; HOP-92; KM12; Malme-3M; NCI/ADR-RES; OVCAR-3; PC-3; RXF 393; SF-295; SK-MEL-5; SN12C; SW-620; U-251; UACC-62; UO-31.
Test in all cases: DTP human tumour cell line panel, 48 h

For orientation: GI50 means the concentration giving 50% growth inhibition. For `OC(C/C=N/Nc1ccccc1)(C(F)(F)Cl)C(F)(F)Cl`, the GI50 with A498 was > 10 µM (inactive); with ACHN, 4.49 µM (inactive); in the assay on DU-145 it was > 10 µM (inactive); in the assay on HCT-15, 5.2 µM; with HL-60 it was > 10 µM (inactive); in the assay on HOP-92 it was 7.35 µM (inactive). Besides, the GI50 in the assay with KM12 was > 10 µM (inactive); in the assay on Malme-3M it was > 10 µM (inactive); in the assay with NCI/ADR-RES it was > 10 µM (inactive); in the assay with OVCAR-3 it was 4.84 µM (inactive); in the assay with PC-3, 4.05 µM (inactive); in the assay with RXF 393 it was 6.75 µM (inactive). Besides, the GI50 in the assay with SF-295, with SK-MEL-5, with SN12C, with SW-620, in the assay with U-251 and with UACC-62 was > 10 µM (inactive) each time. Further, the GI50 with UO-31 was 9.98 µM (inactive).

Regarding `OC(CNc1ccccn1)c1ccccc1` (stereo unspecified) [PHENYRAMIDOL HYDROCHLORIDE], the GI50 is > 100 µM (inactive) with A498; > 100 µM (inactive) in the assay with ACHN; > 100 µM (inactive) in the assay on DU-145; > 100 µM with HCT-15; > 100 µM (inactive) with HL-60; > 100 µM (inactive) with HOP-92. Besides, the GI50 with KM12, with Malme-3M, with NCI/ADR-RES, in the assay on OVCAR-3, with PC-3 and in the assay on RXF 393 was > 100 µM (inactive) each time. Further, the GI50 in the assay on SF-295 is > 100 µM (inactive); in the assay with SK-MEL-5, > 100 µM (inactive); with SN12C, 63.1 µM (inactive); in the assay with SW-620, > 100 µM (inactive); in the assay on U-251, 67.6 µM (inactive); in the assay on UACC-62, > 100 µM (inactive). The GI50 with UO-31 was > 100 µM (inactive).

In the case of `NC1=CN(CCCO)C2=N/C(=C\c3ccccc3)C(=O)N12`, the GI50 is 85.7 µM (inactive) in the assay on A498; > 100 µM (inactive) in the assay on ACHN; > 100 µM (inactive) in the assay with DU-145; > 100 µM in the assay on HCT-15; 42.9 µM (inactive) with HL-60; > 100 µM (inactive) with HOP-92. The GI50 in the assay with KM12, with Malme-3M, in the assay with NCI/ADR-RES, in the assay on OVCAR-3, in the assay on PC-3 and in the assay on RXF 393 was > 100 µM (inactive) each time. Further, the GI50 in the assay on SF-295, in the assay with SK-MEL-5, in the assay with SN12C, with SW-620, with U-251 and with UACC-62 was > 100 µM (inactive) each time. The GI50 with UO-31 was > 100 µM (inactive).

For `Nc1ccc(-c2nc3cc(F)ccc3s2)cc1I`, the GI50 is 15.8 µM (inactive) in the assay with A498; 5.36 µM (inactive) in the assay on ACHN; 43.7 µM (inactive) with DU-145; 1.34 µM in the assay on HCT-15; > 100 µM (inactive) in the assay on HL-60; 17.3 µM (inactive) in the assay with HOP-92. The GI50 with KM12 was 14.7 µM (inactive); in the assay with Malme-3M, 26.1 µM (inactive); in the assay with NCI/ADR-RES it was 18.8 µM (inactive); in the assay with OVCAR-3, 0.255 µM (active); in the assay with PC-3 it was 24.2 µM (inactive); in the assay with RXF 393 it was 15 µM (inactive). The GI50 in the assay with SF-295 was 14.2 µM (inactive); in the assay with SK-MEL-5, 21.7 µM (inactive); with SN12C it was 20.9 µM (inactive); in the assay on SW-620, 27.5 µM (inactive); in the assay with U-251, 13.9 µM (inactive); in the assay on UACC-62 it was 19.6 µM (inactive). In addition, the GI50 with UO-31 is 16.1 µM (inactive).
